Experimental data as given in ChEMBL document CHEMBL5291721, “A preclinical secondary pharmacology resource illuminates target-adverse drug reaction associations of marketed drugs” (Nat Commun, 2023).

Columns and labels:
[1] = target: T1, Muscarinic acetylcholine receptor M2 (Homo sapiens, UniProt P08172); type: functional, cell-based
T1 sequence (P08172 whole entry): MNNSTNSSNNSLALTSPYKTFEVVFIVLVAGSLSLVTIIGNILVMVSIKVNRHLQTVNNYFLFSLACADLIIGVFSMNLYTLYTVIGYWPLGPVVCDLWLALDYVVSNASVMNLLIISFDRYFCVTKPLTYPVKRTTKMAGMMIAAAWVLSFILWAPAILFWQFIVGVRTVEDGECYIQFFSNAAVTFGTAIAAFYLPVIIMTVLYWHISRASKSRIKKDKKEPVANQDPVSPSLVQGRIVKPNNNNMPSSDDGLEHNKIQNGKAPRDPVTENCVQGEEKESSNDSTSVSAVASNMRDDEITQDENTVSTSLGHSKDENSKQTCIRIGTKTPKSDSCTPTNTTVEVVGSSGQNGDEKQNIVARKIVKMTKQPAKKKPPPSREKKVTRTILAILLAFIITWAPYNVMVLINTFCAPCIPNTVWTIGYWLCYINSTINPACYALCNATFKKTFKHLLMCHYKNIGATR

[2] = target: T2, 5-hydroxytryptamine receptor 2B (Homo sapiens, UniProt P41595); type: functional, cell-based
T2 sequence (P41595 whole entry): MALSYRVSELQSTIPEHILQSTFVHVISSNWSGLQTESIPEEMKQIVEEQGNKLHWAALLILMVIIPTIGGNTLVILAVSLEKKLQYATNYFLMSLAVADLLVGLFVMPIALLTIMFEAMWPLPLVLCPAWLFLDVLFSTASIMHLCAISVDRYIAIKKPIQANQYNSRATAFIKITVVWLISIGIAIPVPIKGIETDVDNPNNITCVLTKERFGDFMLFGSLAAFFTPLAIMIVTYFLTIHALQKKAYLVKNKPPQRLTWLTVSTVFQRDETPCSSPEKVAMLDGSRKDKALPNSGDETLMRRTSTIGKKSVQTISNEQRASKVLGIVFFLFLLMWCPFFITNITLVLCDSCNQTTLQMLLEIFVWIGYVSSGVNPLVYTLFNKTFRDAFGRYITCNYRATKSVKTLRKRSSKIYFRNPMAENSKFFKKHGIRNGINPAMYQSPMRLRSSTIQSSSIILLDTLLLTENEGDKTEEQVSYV

[3] = target: Gamma-aminobutyric acid receptor subunit alpha-1 (Rattus norvegicus, UniProt P62813)
Sequence of Gamma-aminobutyric acid receptor subunit alpha-1 (P62813 whole entry): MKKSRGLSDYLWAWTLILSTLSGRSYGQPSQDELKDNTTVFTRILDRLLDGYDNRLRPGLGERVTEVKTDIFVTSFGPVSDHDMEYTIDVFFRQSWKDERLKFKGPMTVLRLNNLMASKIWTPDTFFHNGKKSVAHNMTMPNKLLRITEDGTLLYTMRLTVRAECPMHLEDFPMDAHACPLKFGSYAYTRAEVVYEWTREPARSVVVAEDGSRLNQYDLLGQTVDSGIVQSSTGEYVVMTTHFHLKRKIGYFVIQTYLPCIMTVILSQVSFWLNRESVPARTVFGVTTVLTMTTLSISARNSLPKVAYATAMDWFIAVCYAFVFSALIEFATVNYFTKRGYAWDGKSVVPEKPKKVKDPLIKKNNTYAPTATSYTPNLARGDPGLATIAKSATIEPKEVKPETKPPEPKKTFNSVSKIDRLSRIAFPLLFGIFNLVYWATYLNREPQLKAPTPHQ

Vasopressin V2 receptor = Vasopressin V2 receptor (Homo sapiens, UniProt P30518)
Sequence of Vasopressin V2 receptor (P30518 whole entry): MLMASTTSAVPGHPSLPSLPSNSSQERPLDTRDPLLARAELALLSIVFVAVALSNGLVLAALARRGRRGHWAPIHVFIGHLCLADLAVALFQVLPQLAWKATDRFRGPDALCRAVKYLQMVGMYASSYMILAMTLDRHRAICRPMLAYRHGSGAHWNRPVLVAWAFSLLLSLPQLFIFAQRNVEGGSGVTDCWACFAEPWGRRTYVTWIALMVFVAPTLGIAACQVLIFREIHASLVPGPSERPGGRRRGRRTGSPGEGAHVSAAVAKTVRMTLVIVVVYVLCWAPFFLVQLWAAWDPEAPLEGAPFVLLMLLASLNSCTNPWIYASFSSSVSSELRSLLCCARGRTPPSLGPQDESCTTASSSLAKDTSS

Motilin receptor = Motilin receptor (Homo sapiens, UniProt O43193)
Sequence of Motilin receptor (O43193 whole entry): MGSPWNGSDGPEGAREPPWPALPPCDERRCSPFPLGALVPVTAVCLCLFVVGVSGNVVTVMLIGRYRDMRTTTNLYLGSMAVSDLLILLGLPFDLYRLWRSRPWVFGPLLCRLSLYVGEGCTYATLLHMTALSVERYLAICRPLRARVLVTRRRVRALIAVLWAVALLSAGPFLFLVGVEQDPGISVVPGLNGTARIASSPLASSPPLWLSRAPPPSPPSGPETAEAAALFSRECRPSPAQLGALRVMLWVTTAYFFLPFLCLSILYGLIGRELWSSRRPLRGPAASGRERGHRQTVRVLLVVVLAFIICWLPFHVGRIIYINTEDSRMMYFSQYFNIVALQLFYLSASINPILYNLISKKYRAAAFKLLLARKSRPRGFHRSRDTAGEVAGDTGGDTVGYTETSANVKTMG

[4] = target: Beta-1 adrenergic receptor (Homo sapiens, UniProt P08588); type: functional
[5] = target: T3, Beta-2 adrenergic receptor (Homo sapiens, UniProt P07550)
T3 sequence (P07550 whole entry): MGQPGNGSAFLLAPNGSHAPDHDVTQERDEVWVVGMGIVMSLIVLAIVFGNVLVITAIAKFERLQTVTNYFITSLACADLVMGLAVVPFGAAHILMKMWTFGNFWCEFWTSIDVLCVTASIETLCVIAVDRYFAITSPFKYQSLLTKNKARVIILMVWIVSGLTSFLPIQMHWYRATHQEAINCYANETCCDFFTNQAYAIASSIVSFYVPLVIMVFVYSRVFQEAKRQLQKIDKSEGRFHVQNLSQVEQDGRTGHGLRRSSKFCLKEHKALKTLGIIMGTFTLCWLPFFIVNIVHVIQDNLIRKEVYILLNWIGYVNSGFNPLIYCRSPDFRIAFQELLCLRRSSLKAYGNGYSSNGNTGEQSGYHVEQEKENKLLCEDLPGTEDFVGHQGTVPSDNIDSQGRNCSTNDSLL

[6] = target: T4, Type-1 angiotensin II receptor (Homo sapiens, UniProt P30556)
T4 sequence (P30556 whole entry): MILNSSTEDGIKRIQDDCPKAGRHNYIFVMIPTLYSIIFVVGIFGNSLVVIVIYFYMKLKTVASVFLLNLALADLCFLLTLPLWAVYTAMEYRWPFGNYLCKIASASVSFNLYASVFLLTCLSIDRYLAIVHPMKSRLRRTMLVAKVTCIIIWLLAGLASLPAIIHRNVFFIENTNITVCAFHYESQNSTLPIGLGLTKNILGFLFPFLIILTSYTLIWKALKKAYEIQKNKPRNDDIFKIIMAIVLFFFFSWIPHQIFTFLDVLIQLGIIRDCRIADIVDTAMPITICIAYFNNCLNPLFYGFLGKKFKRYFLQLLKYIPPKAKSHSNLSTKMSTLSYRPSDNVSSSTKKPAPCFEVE

Melanocortin receptor 3 = Melanocortin receptor 3 (Homo sapiens, UniProt P41968)
Sequence of Melanocortin receptor 3 (P41968 whole entry): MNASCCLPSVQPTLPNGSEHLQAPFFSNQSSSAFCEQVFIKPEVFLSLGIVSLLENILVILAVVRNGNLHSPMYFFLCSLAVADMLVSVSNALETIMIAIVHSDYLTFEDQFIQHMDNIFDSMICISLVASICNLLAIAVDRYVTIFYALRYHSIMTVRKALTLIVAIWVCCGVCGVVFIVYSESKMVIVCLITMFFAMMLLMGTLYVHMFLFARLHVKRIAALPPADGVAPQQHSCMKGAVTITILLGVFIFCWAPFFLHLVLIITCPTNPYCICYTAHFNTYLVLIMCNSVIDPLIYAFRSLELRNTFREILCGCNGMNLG

[7] = target: Neuronal acetylcholine receptor subunit alpha-4 (Homo sapiens, UniProt P43681)
Sequence of Neuronal acetylcholine receptor subunit alpha-4 (P43681 whole entry): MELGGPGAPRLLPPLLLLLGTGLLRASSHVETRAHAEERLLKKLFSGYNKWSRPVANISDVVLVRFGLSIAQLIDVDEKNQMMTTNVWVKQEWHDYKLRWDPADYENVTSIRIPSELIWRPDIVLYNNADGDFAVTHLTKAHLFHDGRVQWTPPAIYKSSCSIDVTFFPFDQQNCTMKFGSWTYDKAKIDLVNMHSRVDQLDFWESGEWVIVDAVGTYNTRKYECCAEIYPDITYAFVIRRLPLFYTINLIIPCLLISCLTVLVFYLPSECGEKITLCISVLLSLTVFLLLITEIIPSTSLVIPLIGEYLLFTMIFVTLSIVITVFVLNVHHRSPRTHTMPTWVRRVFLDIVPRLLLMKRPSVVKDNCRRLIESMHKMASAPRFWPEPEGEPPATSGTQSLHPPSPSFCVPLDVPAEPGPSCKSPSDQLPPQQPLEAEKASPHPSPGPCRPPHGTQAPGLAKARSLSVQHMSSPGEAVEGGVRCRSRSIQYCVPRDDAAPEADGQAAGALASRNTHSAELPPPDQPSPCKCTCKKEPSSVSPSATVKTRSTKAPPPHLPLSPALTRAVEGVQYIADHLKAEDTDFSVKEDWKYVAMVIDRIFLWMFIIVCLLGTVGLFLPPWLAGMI

D(1A) dopamine receptor = D(1A) dopamine receptor (Homo sapiens, UniProt P21728); type: functional, cell-based
Sequence of D(1A) dopamine receptor (P21728 whole entry): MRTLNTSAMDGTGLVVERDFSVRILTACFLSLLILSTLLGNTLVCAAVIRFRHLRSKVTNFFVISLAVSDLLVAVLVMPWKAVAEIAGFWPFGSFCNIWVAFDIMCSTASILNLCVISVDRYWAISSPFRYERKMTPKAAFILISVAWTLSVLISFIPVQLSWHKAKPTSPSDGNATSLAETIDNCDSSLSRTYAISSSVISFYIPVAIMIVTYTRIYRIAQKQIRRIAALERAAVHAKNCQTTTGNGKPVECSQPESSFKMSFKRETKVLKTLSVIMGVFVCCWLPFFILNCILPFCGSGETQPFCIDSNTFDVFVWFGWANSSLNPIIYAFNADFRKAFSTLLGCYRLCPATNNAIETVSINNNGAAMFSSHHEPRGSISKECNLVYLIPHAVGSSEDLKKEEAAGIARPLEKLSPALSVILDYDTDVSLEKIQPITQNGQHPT

[8] = target: T5, 5-hydroxytryptamine receptor 1A (Homo sapiens, UniProt P08908); type: functional, cell-based
T5 sequence (P08908 whole entry): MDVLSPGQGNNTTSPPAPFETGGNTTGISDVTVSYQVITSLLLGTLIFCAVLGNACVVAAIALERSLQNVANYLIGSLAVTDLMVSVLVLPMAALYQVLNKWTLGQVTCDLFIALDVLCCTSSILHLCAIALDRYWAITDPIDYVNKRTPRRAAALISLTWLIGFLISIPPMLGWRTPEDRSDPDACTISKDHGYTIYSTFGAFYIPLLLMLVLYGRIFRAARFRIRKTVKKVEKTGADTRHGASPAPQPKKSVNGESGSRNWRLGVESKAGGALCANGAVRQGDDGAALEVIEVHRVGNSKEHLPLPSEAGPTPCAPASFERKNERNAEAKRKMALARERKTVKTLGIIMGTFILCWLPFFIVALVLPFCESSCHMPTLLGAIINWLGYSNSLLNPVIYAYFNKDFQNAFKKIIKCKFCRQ

[9] = target: T2, 5-hydroxytryptamine receptor 2B; type: functional, cell-based; remark: listed apart in the source
[10] = target: T3, Beta-2 adrenergic receptor; type: functional, cell-based
Estrogen receptor = target: T6, Estrogen receptor (Homo sapiens, UniProt P03372)
T6 sequence (P03372 whole entry): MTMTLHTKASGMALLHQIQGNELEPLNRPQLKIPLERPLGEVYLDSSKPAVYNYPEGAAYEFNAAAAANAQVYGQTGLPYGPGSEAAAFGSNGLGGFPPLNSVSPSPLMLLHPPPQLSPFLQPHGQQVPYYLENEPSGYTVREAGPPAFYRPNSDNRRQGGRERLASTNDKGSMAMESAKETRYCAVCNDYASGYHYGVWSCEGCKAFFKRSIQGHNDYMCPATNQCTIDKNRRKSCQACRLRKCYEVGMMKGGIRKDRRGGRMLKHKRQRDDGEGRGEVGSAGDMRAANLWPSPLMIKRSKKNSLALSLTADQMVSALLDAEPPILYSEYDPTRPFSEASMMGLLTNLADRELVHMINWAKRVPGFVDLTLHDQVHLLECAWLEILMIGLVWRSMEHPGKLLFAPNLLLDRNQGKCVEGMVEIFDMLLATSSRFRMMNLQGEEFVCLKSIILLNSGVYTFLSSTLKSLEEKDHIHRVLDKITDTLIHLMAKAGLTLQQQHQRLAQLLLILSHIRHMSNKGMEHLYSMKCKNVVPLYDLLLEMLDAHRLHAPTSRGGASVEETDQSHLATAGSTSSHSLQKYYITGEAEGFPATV

[11] = target: Vascular endothelial growth factor receptor 2 (Homo sapiens, UniProt P35968); type: functional
Sequence of Vascular endothelial growth factor receptor 2 (P35968 whole entry): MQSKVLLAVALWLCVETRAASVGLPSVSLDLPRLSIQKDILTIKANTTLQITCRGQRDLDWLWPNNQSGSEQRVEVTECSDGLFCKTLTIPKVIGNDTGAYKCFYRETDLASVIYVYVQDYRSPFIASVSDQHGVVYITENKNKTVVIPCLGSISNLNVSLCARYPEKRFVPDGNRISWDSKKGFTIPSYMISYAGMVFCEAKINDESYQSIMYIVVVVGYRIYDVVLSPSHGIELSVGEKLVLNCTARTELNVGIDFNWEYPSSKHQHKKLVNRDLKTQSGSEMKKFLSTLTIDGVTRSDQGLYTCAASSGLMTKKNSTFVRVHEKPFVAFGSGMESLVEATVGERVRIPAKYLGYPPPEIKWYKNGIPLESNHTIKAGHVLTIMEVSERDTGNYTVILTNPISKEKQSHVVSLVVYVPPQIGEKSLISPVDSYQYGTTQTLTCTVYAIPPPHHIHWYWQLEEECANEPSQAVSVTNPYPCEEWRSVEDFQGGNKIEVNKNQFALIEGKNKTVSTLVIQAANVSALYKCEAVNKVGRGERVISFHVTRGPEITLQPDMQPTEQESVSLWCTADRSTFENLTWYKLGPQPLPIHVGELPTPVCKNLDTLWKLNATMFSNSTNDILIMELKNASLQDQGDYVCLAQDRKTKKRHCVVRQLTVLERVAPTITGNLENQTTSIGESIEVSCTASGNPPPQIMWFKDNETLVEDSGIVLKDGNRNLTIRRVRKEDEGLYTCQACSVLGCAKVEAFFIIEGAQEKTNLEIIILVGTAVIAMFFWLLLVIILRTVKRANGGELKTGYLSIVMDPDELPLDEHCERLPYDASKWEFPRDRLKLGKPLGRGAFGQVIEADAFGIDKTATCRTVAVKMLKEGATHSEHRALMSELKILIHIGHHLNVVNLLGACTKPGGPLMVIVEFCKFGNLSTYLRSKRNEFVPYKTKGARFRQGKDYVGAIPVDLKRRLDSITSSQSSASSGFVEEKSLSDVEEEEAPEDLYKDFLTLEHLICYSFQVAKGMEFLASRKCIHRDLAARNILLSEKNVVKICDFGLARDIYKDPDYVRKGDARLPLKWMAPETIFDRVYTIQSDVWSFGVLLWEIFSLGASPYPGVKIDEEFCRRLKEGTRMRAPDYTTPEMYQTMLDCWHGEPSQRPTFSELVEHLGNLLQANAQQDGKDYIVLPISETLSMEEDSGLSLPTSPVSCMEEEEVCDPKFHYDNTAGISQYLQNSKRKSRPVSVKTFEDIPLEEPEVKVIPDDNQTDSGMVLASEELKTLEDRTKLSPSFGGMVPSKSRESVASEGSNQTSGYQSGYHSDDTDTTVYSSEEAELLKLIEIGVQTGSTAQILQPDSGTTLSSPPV
Note: assay procedure not described here.

| AC50 [1] [µM] | AC50 [2] [µM] | AC50 [3] [µM] | AC50 (Vasopressin V2 receptor) [µM] | AC50 (Motilin receptor) [µM] | AC50 [4] [µM] | AC50 [5] [µM] | AC50 [6] [µM] | AC50 (Melanocortin receptor 3) [µM] | AC50 [7] [µM] | AC50 (D(1A) dopamine receptor) [µM] | AC50 [8] [µM] | AC50 [9] [µM] | AC50 [10] [µM] | SMILES | AC50 (Estrogen receptor) [µM] | AC50 [11] [µM] |
| --- | --- | --- | --- | --- | --- | --- | --- | --- | --- | --- | --- | --- | --- | --- | --- | --- |
| > 10 | > 10 | > 10 | > 30 | > 10 | > 30 | > 10 | > 30 | > 30 | > 30 | > 10 | > 10 | > 10 | > 30 | COc1ccccc1Oc1c(NS(=O)(=O)c2ccc(C(C)(C)C)cc2)nc(-c2ncccn2)nc1OCCO [BOSENTAN] | – | – |
| > 30 | > 30 | – | – | > 30 | > 30 | – | > 30 | > 30 | > 30 | > 30 | > 30 | > 30 | > 30 | CC(S)C(=O)NCC(=O)O (centres undefined) [TIOPRONIN] | – | – |
| > 30 | > 30 | > 30 | 20 | 22 | 8.8 | – | > 30 | 13 | > 1 | > 30 | > 30 | – | > 30 | C[C@@H](NCCCc1cccc(C(F)(F)F)c1)c1cccc2ccccc12 | – | – |
| – | > 30 | – | > 30 | > 30 | > 30 | – | > 30 | > 30 | > 30 | – | > 30 | 22 | > 30 | CN(C)CCC[C@@]1(c2ccc(F)cc2)OCc2cc(C#N)ccc21 [ESCITALOPRAM] | – | – |
| – | – | – | – | – | – | – | – | – | – | – | – | – | – | CC(C)OC(=O)CCC/C=C\C[C@@H]1[C@@H](/C=C/C(F)(F)COc2ccccc2)[C@H](O)C[C@@H]1O [TAFLUPROST] | > 30 | > 10 |
| – | – | – | – | – | – | – | – | – | – | – | – | – | – | CC(CCc1ccccc1)NCC(O)c1ccc(O)c(C(N)=O)c1 (centres undefined) [LABETALOL] | > 30 | > 30 |
| – | – | – | – | – | – | – | – | – | – | – | – | – | – | CNC(=O)Oc1cccc2ccccc12 [CARBARIL] | > 30 | > 30 |
| > 30 | 14 | > 30 | > 30 | > 10 | > 10 | > 10 | > 30 | > 30 | > 10 | > 30 | – | > 10 | > 30 | CN(C)CCc1c[nH]c2ccc(Cn3cncn3)cc12 [RIZATRIPTAN] | – | – |
| > 10 | > 30 | – | > 30 | 16 | > 30 | > 10 | 29 | 19.9 | – | > 30 | > 10 | 2.7 | > 30 | C[C@@H](Oc1cc(-c2cnn(C3CCNCC3)c2)cnc1N)c1c(Cl)ccc(F)c1Cl [CRIZOTINIB] | – | – |
| – | – | – | – | – | – | – | – | – | – | – | – | – | – | OC[C@H]1O[C@@H](c2ccc(Cl)c(Cc3ccc(O[C@H]4CCOC4)cc3)c2)[C@H](O)[C@@H](O)[C@@H]1O [EMPAGLIFLOZIN] | > 30 | > 30 |
| – | – | – | – | – | – | – | – | – | – | – | – | – | – | Cc1ccccc1C(=O)Nc1ccc(C(=O)N2CCCC(N(C)C)c3ccccc32)cc1 (centres undefined) [MOZAVAPTAN] | > 30 | > 30 |
| > 30 | > 30 | > 30 | > 30 | > 30 | > 30 | – | > 30 | > 30 | > 30 | > 30 | > 30 | > 30 | > 30 | CC(C)c1nc(N(C)S(C)(=O)=O)nc(-c2ccc(F)cc2)c1/C=C/[C@@H](O)C[C@@H](O)CC(=O)O [ROSUVASTATIN] | – | – |
| > 10 | 1.16 | – | > 30 | > 10 | – | > 10 | > 30 | > 30 | – | > 10 | > 30 | – | > 30 | C=C[C@H]1C[N@@]2CC[C@H]1C[C@@H]2[C@@H](O)c1ccnc2ccc(OC)cc12 [QUINIDINE] | – | – |
| – | – | – | – | – | – | – | – | – | – | – | – | – | – | CC[C@H]1OC(=O)[C@H](C)C(=O)[C@H](C)[C@@H](O[C@@H]2O[C@H](C)C[C@H](N(C)C)[C@H]2O)[C@](C)(OC)C[C@@H](C)C(=O)[C@H](C)[C@H]2N(CCCCn3cnc(-c4cccnc4)c3)C(=O)O[C@]12C [TELITHROMYCIN] | > 30 | > 30 |
| > 30 | > 30 | > 10 | – | > 30 | > 30 | > 10 | > 30 | > 30 | > 30 | > 30 | > 30 | > 30 | > 30 | N[C@@H](CC(=O)N1CCn2c(nnc2C(F)(F)F)C1)Cc1cc(F)c(F)cc1F [SITAGLIPTIN] | – | – |
| – | – | – | – | – | – | – | – | – | – | – | – | – | – | CC[C@H](C)C[C@H](C)CCCCCCCCC(=O)N[C@H]1C[C@@H](O)[C@@H](NCCN)NC(=O)[C@@H]2[C@@H](O)CCN2C(=O)[C@H]([C@H](O)CCN)NC(=O)[C@H]([C@H](O)[C@@H](O)c2ccc(O)cc2)NC(=O)[C@@H]2C[C@@H](O)CN2C(=O)[C@H]([C@@H](C)O)NC1=O [CASPOFUNGIN] | 23.1 | > 10 |

| SMILES | AC50 [1] [µM] | AC50 [2] [µM] | AC50 [3] [µM] | AC50 (Vasopressin V2 receptor) [µM] | AC50 (Motilin receptor) [µM] | AC50 [4] [µM] | AC50 [5] [µM] | AC50 [6] [µM] | AC50 (Melanocortin receptor 3) [µM] | AC50 [7] [µM] | AC50 (D(1A) dopamine receptor) [µM] | AC50 [8] [µM] | AC50 [9] [µM] | AC50 [10] [µM] | AC50 (Estrogen receptor) [µM] | AC50 [11] [µM] |
| --- | --- | --- | --- | --- | --- | --- | --- | --- | --- | --- | --- | --- | --- | --- | --- | --- |
| CN(CC1(C)CCCO1)S(=O)(=O)c1ccc(Cl)c(S(N)(=O)=O)c1 (centres undefined) [MEFRUSIDE] | – | > 30 | > 30 | – | – | – | – | – | – | – | > 30 | – | > 30 | > 30 | – | – |
| CCN1CCN(Cc2ccc(Nc3ncc(F)c(-c4cc(F)c5nc(C)n(C(C)C)c5c4)n3)nc2)CC1 [ABEMACICLIB] | > 30 | > 30 | – | – | > 30 | > 30 | – | > 30 | > 30 | > 30 | > 30 | > 30 | 19 | > 30 | – | – |
| C[C@H](CCC(=O)O)[C@H]1CC[C@H]2[C@@H]3[C@@H](O)C[C@@H]4C[C@H](O)CC[C@]4(C)[C@H]3CC[C@]12C [URSODIOL] | > 30 | > 30 | – | – | > 30 | > 30 | – | > 30 | > 30 | > 30 | > 30 | > 30 | > 30 | > 30 | – | – |
